Source: US5883074A, “Potentiators of antibacterial agents” (priority 1995, dated 1999)

Experiments:
MRSA strain Col [1] = assay: Methicillin potentiation (methicillin MIC reduction), FIG. 1; type: cell-based, Staphylococcus aureus; conditions: potentiator at 0, 5, and 10 μg/ml
Procedure: (§1) The methicillin MIC at 0, 5, and 10 μg/ml of the potentiating molecules is shown. The structures of the two potentiating molecules are also shown. These potentiators were identified by screening by the methods of Examples 1 and 2, and the MIC reduction evaluated by the method of Example 3.
(§2) Compounds which meet the first two criteria for follow-up are evaluated in a standard microdilution assessment of the MIC with methicillin for MRSA. (see Lorian, Antibiotics in Laboratory Medicine, 3rd ed., pp. 72-75 (1991).) In order to be carried further, the MIC of methicillin preferably is reduced in the presence of the potentiator to at most twice the MIC of a susceptible strain for methicillin. (However, that level of reduction is not essential, since in particular circumstances a potentiator which provides a lesser reduction in the MIC can be useful.) In cases where susceptibility breakpoints are not available or the organism is not resistant to the drug whose action is being potentiated, the MIC preferably must be reduced by several twofold dilutions. We describe herein two compounds identified as having methicillin potentiating activity. These two potentiators meet the first three desired pharmacologic criteria as described above: (1) Potentiation of an anti-bacterial agent, (2) Little or no inhibition of the target organisms when used alone, and (3) Ability to reduce the MIC of an antibacterial agent to less than or equal to two times the MIC of an equivalent bacterial strain susceptible to that agent.
(§3) MICs for the compounds were determined in the presence of 0, 5, and 10 μg/ml of each compound. MRSA cells were grown in the presence of 0, 5, and 10 μg/ml test compound and concentrations of methicillin obtained from serial two-fold dilutions starting at 1024 μg/ml to 0.002 μg/ml (This range can be extended or refined as appropriate.) as follows: A fresh inoculum of MRSA cells was grown at 35° C. in Mueller-Hinton Broth (MHB) overnight and then diluted 1/50 in the same medium. After regrowth at 35° C. to an OD600 of 0.2-0.4 (1-2 hrs.), the cells were diluted 1/1000 in MHB. In a microtiter plate, 50 μl of this diluted culture were combined with 50 μl MHB containing 0, 10, or 20 μg/ml test compound to give starting growth conditions of 5×10^5 cfu/ml in MHB, with 0, 5, or 10 μg/ml test compound. The plate was placed in a humidified 35° C. incubator for 24 hours, and cell growth or inhibition was read as turbidity (OD600).

MRSA strain MRSA76 = assay: as above; type: cell-based, Staphylococcus aureus; conditions: potentiator at 0, 5, and 10 μg/ml
Procedure: as §1, §2, §3

[2] = test system: methicillin sensitive strain Col8A; assay: Methicillin MIC in methicillin sensitive strain with potentiator, FIG. 1; type: cell-based, Staphylococcus aureus; conditions: potentiator at 0, 5, and 10 μg/ml
MRSA Col cells = assay: Time-kill curve with methicillin; type: cell-based, Staphylococcus aureus
Procedure: FIG. 3a is a graph of the number of viable MRSA Col cells/ml versus growth time in hours as determined by the method of Example 4. The graph presents the time kill curve for the first potentiating compound from FIG. 1 at 10 μg/ml with methicillin at 20 μg/ml, and curves for controls (drug-free, methicillin only, and potentiator only). Viable cell counts for all controls were greater than 5×10^8 cells/ml at 24 hours, while the viable cell count for methicillin plus potentiator was approximately 5×10^3 cells/ml after 24 hours.
A standard time-kill method (see Eliopolous & Moellering, Ch. 13 in Antibiotics in Laboratory Medicine, 3rd ed., Lorian ed., at pp. 441-444) is used to characterize whether the potentiator-drug combination is bacteriostatic or bactericidal. As controls, normal growth of the pathogen (without drug or potentiator) and the effects of the drug alone and the potentiator alone are assessed using the same inoculum culture as is used in the combination time-kill test. Either bacteriostatic or bactericidal effect should be confirmed for the potentiators to progress to further testing.

MRSA [3] = assay: Potentiation screening assay: methicillin MIC reduction in MRSA; type: cell-based, Staphylococcus aureus; conditions: 0, 5, and 10 μg/ml test compound
Procedure: After regrowth at 35° C. to an OD600 of 0.2-0.4 (1-2 hrs.), the cells are diluted 1/1000 in MHB. […] The plate is placed in a humidified 35° C. incubator for 5-24 hours, and cell growth or inhibition is read as turbidity (OD600). Two positive and one negative controls for growth are cells grown MHB, cells grown in MHB plus 20 μg/ml methicillin alone (without test compound), and uninoculated MHB respectively.
Compounds which meet the first two criteria for follow-up are evaluated in a standard microdilution assessment of the MIC with methicillin for MRSA. (see Lorian, Antibiotics in Laboratory Medicine, 3rd ed., pp. 72-75 (1991).) In order to be carried further, the MIC of methicillin preferably is reduced in the presence of the potentiator to at most twice the MIC of a susceptible strain for methicillin.
as §3, with “In a microtiter plate, 50 μl of this diluted culture were combined with 50 μl MHB containing 0, 10, or 20 μg/ml test compound to give starting growth conditions of 5×10^5 cfu/ml in MHB, with 0, 5, or 10 μg/ml test compound.” left out

MRSA [4] = assay: Specificity: intrinsic antibacterial activity without antibacterial agent; type: cell-based, Staphylococcus aureus; conditions: test compound alone, without methicillin
Procedure: In order to ascertain that the test compound is not primarily responsible for inhibition of growth, MRSA cells are grown in the presence of 5 μg/ml test compound as follows: A fresh inoculum of MRSA cells is grown at 35° C. in Mueller-Hinton Broth (MHB) overnight and then diluted 1/50 in the same medium. After regrowth at 35° C. to an OD600 of 0.2-0.4 (1-2 hrs.), the cells are diluted 1/1000 in MHB. In a microtiter plate, 50 μl of this diluted culture is combined with 50 μl MHB containing 10 μg/ml test compound to give starting growth conditions of 5×10^5 cfu/ml in MHB, with 5 μg/ml test compound. The plate is placed in a humidified 35° C. incubator for 5-24 hours, and cell growth or inhibition is read as turbidity (OD600). To be carried forward to the next step of the potentiator screening assay, the test compound should have little or no intrinsic anti-staphylococcal activity (growth should be at least 75% of the growth of the positive control without methicillin, corrected for background), or that activity should be explicable without indicating the probability of human toxicity.

MRSA strain Col [5] = assay: Potentiating effect for 17 antimicrobial agents (MIC reduction), FIG. 2; type: cell-based, Staphylococcus aureus
Procedure: FIG. 2 is a table showing the potentiating effect of one of the potentiating molecules from FIG. 1 for 17 antimicrobial agents in MRSA strain Col. The MIC is shown at 0, 5, and 10 μg/ml of potentiator.
as §3
The procedures used in Examples 1-3 to determine potentiation activity, and MIC reduction have been carried out using larixol acetate as the test compound and various antibacterial agents in place of methicillin. […]

MRSA strain Col 2278 = assay: Imipenem potentiation (MIC reduction), FIG. 4; type: cell-based, Staphylococcus aureus; conditions: compound at 10 μg/ml
Procedure: (§4) FIG. 4 is a table showing the imipenem potentiation effect of the second compound from FIG. 1 at 10 μg/ml in 5 MRSA strains (Col, Col 2278, sa 038, Spain 356, and Spain 195).

MRSA strain Col [6] = assay: Imipenem potentiation (MIC reduction), FIG. 4; type: cell-based, Staphylococcus aureus; conditions: compound at 10 μg/ml
Procedure: as §4

MRSA strain Spain 195 = assay: Imipenem potentiation (MIC reduction), FIG. 4; type: cell-based, Staphylococcus aureus; conditions: compound at 10 μg/ml
Procedure: as §4

Enterococcus faecium = assay: Ampicillin potentiation screen; type: cell-based; conditions: highly ampicillin-resistant Enterococcus faecium, ampicillin alone
Procedure: The ampicillin potentiation screen is a high-throughput (96 well), whole cell assay in which compounds of unknown pharmacological activity are tested for their ability to induce an ampicillin-susceptible phenotype in highly ampicillin-resistant Enterococcus faecium (MIC of ampicillin>100μg/ml). These highly ampicillin-resistant bacteria are grown in the presence of ampicillin and various test compounds. The concentration of ampicillin used is well below the MIC for the resistant cells, but higher than the MIC for the isogeneic susceptible cells. Therefore, resistant cells can grow in the presence of the ampicillin without test compound, but the growth of susceptible cells is repressed. Growth is assessed after 5-24 hours by turbidity. Compounds are also tested for intrinsic antibacterial activity in the absence of ampicillin. Compounds which repress Enterococcus faecium growth when used together with ampicillin, which show no, or only a little, intrinsic antibacterial activity, are considered potentiators. […]
A fresh inoculum of E. faecium cells are grown at 35° C. in Brain-Heart Infusion Broth (BHI) overnight and then diluted 1/50 in the same medium. […] The plate is placed in a humidified 35° C. incubator for 24 hours, and cell growth or inhibition is read as turbidity (OD600). […]

## COc1ccc2c(c1)CCC1C2CCC2CC(O)CCC21C (stereo not drawn) [HMM-dodecahydrochrysene, 2-hydroxy-8-methoxy-4a-methyl-1,2,3,4,4a,4b,5,6,10b,11,12,12a-dodecahydrochrysene]
MRSA strain Col [1]
  reduction of methicillin MIC: reducing the methicillin MIC
MRSA strain MRSA76
  reduction of methicillin MIC: reducing the methicillin MIC
[2]
  reduction of methicillin MIC: absence of a reduction in the MIC
MRSA Col cells; potentiator 10 μg/ml with methicillin 20 μg/ml, after 24 hours
  viable cell count, methicillin plus potentiator: approximately 5×10^3 cells/ml
MRSA Col cells; potentiator only, at 24 hours
  viable cell count, potentiator only (control): greater than 5×10^8 cells/ml
MRSA [3]
  effect on the MIC for methicillin: reduce the MIC for methicillin
MRSA [4]
  intrinsic antimicrobial activity: not exhibiting intrinsic antimicrobial activity

## C=CC(C)(O)CCC1C(=C)CC(OC(C)=O)C2C(C)(C)CCCC12C (stereo not drawn) [larixol acetate]
MRSA strain Col [1]
  reduction of methicillin MIC: reducing the methicillin MIC
MRSA strain MRSA76
  reduction of methicillin MIC: reducing the methicillin MIC
[2]
  reduction of methicillin MIC: absence of a reduction in the MIC
MRSA strain Col [5]; potentiator at 0, 5, and 10 μg/ml, range of β-lactams, including methicillin, cefazolin, and imipenem
  MIC reduction of antimicrobial agents: Significant MIC reduction
MRSA strain Col [5]; some β-lactams, larixol acetate as potentiator
  MIC with potentiator relative to MIC of the antibacterial agent in the absence of the potentiator: less than 10^-3
MRSA strain Col 2278
  imipenem MIC reduction: three orders of magnitude
MRSA strain Col [6]
  imipenem MIC reduction: three orders of magnitude
MRSA strain Spain 195
  imipenem MIC reduction: three orders of magnitude
MRSA [3]
  effect on the MIC for methicillin: reduce the MIC for methicillin
MRSA [4]
  intrinsic antimicrobial activity: not exhibiting intrinsic antimicrobial activity

## CC1(C)S[C@@H]2[C@H](NC(=O)[C@H](N)c3ccccc3)C(=O)N2[C@H]1C(=O)O [ampicillin]
Enterococcus faecium
  MIC: > 100 µg/mL
